Assay results as given in patent publication US20100203156A1, “XENON AS A TREATMENT FOR HEMOGLOBINOPATHY” (priority 2009, published 2010).

Experiments:
HbS = HbS (Homo sapiens, UniProt P68871+P69905, E7V); conditions: cited from earlier work
[1] = tested on: spinal dorsal horn neurons; conditions: cited from earlier work; for nociception depending on age: various ages / the young
hemoglobin [2] = biological target: T1, hemoglobin (Homo sapiens, UniProt P68871+P69905); conditions: cited from earlier work
[3] = with oxygen, human adults; cited from earlier work
[4] = inhaled xenon; cited from earlier work
hemoglobin [5] = biological target: T1, hemoglobin; assay: association rates of gases for hemoglobin; format: binding
[6] = cited from earlier work

CC [ethane]
effect on HbS aggregation (HbS): prevent and reverse HbS aggregation

C [methane]
effect on HbS aggregation (HbS): prevent and reverse HbS aggregation

[N-]=[N+]=O [nitrous oxide]
nociception depending on age [1]: ineffective in the young

CCC [propane]
effect on HbS aggregation (HbS): prevent and reverse HbS aggregation

[Xe] [xenon]
xenon in blood carried by hemoglobin (hemoglobin [2]; during xenon inhalation, estimated): 45%
amount of xenon bound by reduced and oxyhemoglobin (hemoglobin [2]; reduced versus oxyhemoglobin): approximately the same
1 MAC, inhaled fractional concentration [3]: 0.63-0.73
nociceptive responsiveness of spinal dorsal horn neurons ([1]; animal studies): directly inhibited
nociception depending on age [1]: reduce nociception at various ages
inhaled concentration at which nausea and vomiting has been observed [4]: > 30%
xenon association rate for hemoglobin relative to CO (hemoglobin [5]; versus CO): 10 times faster
xenon association rate for hemoglobin relative to O2 (hemoglobin [5]; versus O2): 1-2 times faster
analgesia to cold pain ([6]; human, in vivo): not to cold pain
analgesia to ischemic, electrical, mechanical, and heat stimulation ([6]; human, in vivo): produced analgesia
analgesic potency compared with nitrous oxide ([6]; human, in vivo): comparable or superior to nitrous oxide
response to experimentally induced, standardized forms of pain ([6]; inhaled dose of ~20%, healthy volunteers): significantly decrease the response
